Experimental data from publication PMC10482691, “LTP induction by structural rather than enzymatic functions of CaMKII” (Nature, 2023).
Several values for one entry are separate records, joined by “and”; a condition that tells them apart may be missing. Identical values can stand only once.

What was measured:
Aurora-C(h) = Aurora-C(h) (Homo sapiens, UniProt Q9UQB9); experiment: Kinase selectivity panel (residual activity at 1 μM); assay type: biochemical; settings: inhibitor at 1 μM; read-out: residual kinase activity in % of maximal activity
Chain of Aurora-C(h) (Q9UQB9 whole entry): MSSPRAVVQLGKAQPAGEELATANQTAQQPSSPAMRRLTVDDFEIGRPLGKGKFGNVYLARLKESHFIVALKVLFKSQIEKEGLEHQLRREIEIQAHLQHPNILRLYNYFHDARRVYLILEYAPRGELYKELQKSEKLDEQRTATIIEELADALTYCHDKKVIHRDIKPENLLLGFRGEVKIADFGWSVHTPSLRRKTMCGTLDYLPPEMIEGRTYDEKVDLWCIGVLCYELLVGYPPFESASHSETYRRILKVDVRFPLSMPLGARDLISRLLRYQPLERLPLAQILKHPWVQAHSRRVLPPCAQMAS

CaMKIIα(h) = CaMKIIα(h) (Homo sapiens, UniProt Q9UQM7); experiment: as above; assay type: biochemical; settings: inhibitor at 1 μM; read-out: residual kinase activity in % of maximal activity
Chain of CaMKIIα(h) (Q9UQM7 whole entry): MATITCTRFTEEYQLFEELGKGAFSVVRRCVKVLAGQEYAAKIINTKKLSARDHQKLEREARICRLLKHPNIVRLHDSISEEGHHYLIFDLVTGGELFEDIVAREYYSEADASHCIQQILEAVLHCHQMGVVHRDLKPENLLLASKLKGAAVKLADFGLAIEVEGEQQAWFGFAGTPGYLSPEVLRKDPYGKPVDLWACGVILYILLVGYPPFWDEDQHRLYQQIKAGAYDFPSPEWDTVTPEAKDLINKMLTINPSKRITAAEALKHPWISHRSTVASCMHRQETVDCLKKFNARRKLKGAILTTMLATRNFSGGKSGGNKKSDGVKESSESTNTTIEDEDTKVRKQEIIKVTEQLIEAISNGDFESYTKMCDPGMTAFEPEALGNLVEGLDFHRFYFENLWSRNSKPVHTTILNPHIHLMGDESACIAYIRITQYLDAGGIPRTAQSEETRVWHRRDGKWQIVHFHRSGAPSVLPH

purified CaMKIIα = purified CaMKIIα (Rattus norvegicus, UniProt P11275); experiment: In vitro kinase reaction: CaMKIIα phosphorylation of GST–GluA1 S831; assay type: biochemical; settings: 30 °C, 1 mM ATP, Ki from IC50 with Km ATP 33.3 μM, read-out: apparent inhibitor constant (Ki), pS831
Procedure: Data are presented as mean values ± s.e.m. a, Schematic of the AS283 inhibitor mechanism of action: ATP-competitive inhibition blocks enzymatic activity while mimicking the nucleotide binding requirement to allow interaction with GluN2B. b, Representative immunoblot and quantification of in vitro kinase reactions at 30 °C in 1 mM ATP measuring purified CaMKIIα phosphorylation of GST–GluA1 S831 with varying concentrations of AS283 (0.41–10 μM; n = 4 independent concentration curves). For a negative control (Neg.), ATP was omitted. […] ADP:AS283 P = 0.0697; ADP:tatCN21 P < 0.0001. ***P < 0.001. d, Confocal microscopy images of HEK293 cells co-expressing GFP–CaMKII and mCherry-2BC. […] CaMKII synaptic enrichment was measured before and after cLTP (n = 14,9 cells; RM two-way ANOVA with Šídák’s multiple comparisons test). […]
CaMKII-mediated phosphorylation of GluA1 S831 or GluN2B S1303 was measured by in vitro kinase reaction with a purified GST–GluA1 C-terminal tail or GST-GluN2B C-terminal tail. […] GST, phospho-S831, CaMKII, phospho-T286 or phospho-S1303 were detected in the samples by immunoblot analysis.
The inhibition constant Ki was calculated using the Cheng–Prusoff equation for competitive inhibition: Ki = IC50/(1 + [ATP]/Km).

[1] = system: CA1 LTP in CaMKIIα KO slices (mock); experiment: LTP field recordings in slices of CaMKIIα KO mice injected with AAV-mScarlet (mock); assay type: cell-based, mouse; settings: for fEPSP slope (normalized to baseline): individual slices, sheet 5b
Procedure: Stereotactic injections were performed on P24 CaMKIIα KO mice. Animals were anesthetized with an intraperitoneal injection of 2,2,2-Tribromoethanol (250 mg kg^−1) and then head fixed to a stereotactic frame (David Kopf Instruments). AAVs (0.2–0.5 µl) were injected into intermediate CA1 at a rate of […] using a syringe pump (World Precision Instruments). Coordinates (in millimetres) were anterior–posterior: −3.17; mediolateral: ±3.45 (relative to Bregma); and dorsoventral: −2.5 (relative to pia). To confirm specificity of the injection site following LTP recordings, slices were fixed in 4% paraformaldehyde; then, they were coverslipped and imaged on an Olympus slide scanning microscope.
WT and mutant mouse hippocampal slices were prepared using P56–P70 mice. Isoflurane-anesthetized mice were rapidly decapitated, and the brain was dissected in an ice-cold high-sucrose solution containing 220 mM sucrose, 12 mM MgSO4, 10 mM glucose, 0.2 mM CaCl2, 0.5 mM KCl, 0.65 mM NaH2PO4, 13 mM NaHCO3 and 1.8 mM ascorbate. Transverse hippocampal slices (400 μm) were made using a tissue chopper (McIlwain) and transferred into 32 °C ACSF containing 124 mM NaCl, 3.5 mM KCl, 1.3 mM NaH2PO4, 26 mM NaHCO3, 10 mM glucose, 2 mM CaCl2, 1 mM MgSO4 and 1.8 mM ascorbate. All slices were recovered in 95% O2/5% CO2 for at least 1.5 h before experimentation.
For electrophysiological slice recording experiments, a glass micropipette (typical resistance of 0.4–0.8 megaohm when filled with ACSF) was used to record fEPSPs from the CA1 dendritic layer in response to stimulation of the Schaffer collaterals using a tungsten bipolar electrode. Slices were continually perfused with 30.5 °C ± 0.5 °C ACSF at a rate of 2.5 ± 0.5 ml min^−1 during recordings. Stimuli were delivered every 20 s, and three responses (1 min) were averaged for analysis. Data were analysed using WinLTP software with slope calculated as the initial rise from 10 to 60% of the response peak. Input–output curves were generated by increasing the stimulus intensity at a constant interval until a maximum response or population spike was noted to determine stimulation that elicits 50% of maximum slope. […] A stable baseline was acquired for a minimum of 20 min at 50% maximum slope before high-frequency stimulation (HFS; 2 × 100 Hz, 10 s interval) was applied. Responses were recorded for 40 or 60 min after HFS. Change in slope was calculated as a ratio of the average slope of the 20 min baseline (before HFS). Bar graphs of the percentage of fEPSP slope were calculated by averaging the last 10 min time points post-HFS and normalized to baseline.

## NCCNc1cccc(-c2ccnc3[nH]c4ccccc4c23)c1 [AS283]
Aurora-C(h)
  remaining activity at 1 µM: 63%
CaMKIIα(h)
  remaining activity at 1 µM: 3%
Purified CaMKIIα
  Ki: 17 nM

## CC(C)(C)n1nc(Cc2cccc3ccccc23)c2c(N)ncnc21 [NM-PP1]
[1]; AAV-mScarlet (mock), 10 μM NM-PP1
  synaptic response 60 min following LTP induction (fEPSP slope normalized to baseline): 102.757% and 115.997% and 130.031% and 114.245% and 91.515% and 129.007%
[1]; NM-PP1
  effect on residual LTP in control slices: no effect
[1]; Time (min) 0
  fEPSP slope (normalized to baseline): 101.067 and 113.338 and 103.234 and 95.8969 and 93.1952 and 132.987
[1]; Time (min) 2.33333
  fEPSP slope (normalized to baseline): 249.911 and 143.318 and 169.121 and 175.176 and 145.841 and 156.755
[1]; Time (min) 4.33333
  fEPSP slope (normalized to baseline): 204.384 and 151.727 and 165.598 and 165.31 and 135.76 and 108.68
[1]; Time (min) 6.33333
  fEPSP slope (normalized to baseline): 189.169 and 150.265 and 135.884 and 160.117 and 120.975 and 129.276
[1]; Time (min) 8.33333
  fEPSP slope (normalized to baseline): 181.94 and 147.249 and 128.602 and 144.365 and 120.078 and 132.395
[1]; Time (min) 10.3333
  fEPSP slope (normalized to baseline): 172.351 and 139.799 and 136.941 and 133.459 and 110.893 and 130.889
[1]; Time (min) 12.3333
  fEPSP slope (normalized to baseline): 161.674 and 137.88 and 134.122 and 129.997 and 100.812 and 137.611
[1]; Time (min) 14.3333
  fEPSP slope (normalized to baseline): 174.774 and 134.406 and 129.19 and 125.67 and 98.5718 and 121.048
[1]; Time (min) 16.3333
  fEPSP slope (normalized to baseline): 159.559 and 133.63 and 131.891 and 126.189 and 89.1627 and 135.622
[1]; Time (min) 18.3333
  fEPSP slope (normalized to baseline): 153.964 and 134.681 and 128.015 and 124.631 and 95.4355 and 108.465
[1]; Time (min) 20.3333
  fEPSP slope (normalized to baseline): 149.095 and 132.944 and 120.851 and 126.189 and 102.828 and 98.3552
[1]; Time (min) 22.3333
  fEPSP slope (normalized to baseline): 149.671 and 128.922 and 119.442 and 125.843 and 91.627 and 123.092
[1]; Time (min) 24.3333
  fEPSP slope (normalized to baseline): 144.438 and 125.952 and 116.623 and 124.631 and 90.9549 and 132.503
[1]; Time (min) 26.3333
  fEPSP slope (normalized to baseline): 142.473 and 123.484 and 117.21 and 125.843
[1]; Time (min) -2
  fEPSP slope (normalized to baseline): 96.4978 and 115.989 and 102.999 and 98.6665 and 100.14 and 126.48
[1]; Time (min) -4
  fEPSP slope (normalized to baseline): 101.912 and 117.543 and 106.993 and 100.051 and 103.5 and 95.9353
[1]; Time (min) -6
  fEPSP slope (normalized to baseline): 102.969 and 117.634 and 102.06 and 101.09 and 99.2439 and 110.347
